In brackets after ≈: the same amount, converted by molar mass.
Tests used:
CYP3A4 [1] = target: T1, CYP3A4 (Homo sapiens, UniProt P08684); assay: Inhibition of CYP3A4 in human liver microsomes assessed as residual activity at 50 uM measured after 30 mins relative to control; assay type: ADME; conditions: read-out: Activity
CYP3A4 [2] = target: T1, CYP3A4; assay: Inhibition of CYP3A4 in human liver microsomes assessed as residual activity at 10 uM measured after 30 mins relative to control; assay type: ADME; conditions: read-out: Activity
CYP3A4 [3] = target: T1, CYP3A4; assay: Inhibition of CYP3A4 in human liver microsomes assessed as residual activity at 10 uM measured immediately relative to control; assay type: ADME; conditions: read-out: Activity
Cytochrome P450 3A4 = Cytochrome P450 3A4 (Homo sapiens, UniProt P08684); assay: Time-dependent inhibition of CYP3A4 in human liver microsomes at 10 to 50 uM; assay type: ADME
Cytochrome P450 3A4, sequence (P08684 whole entry): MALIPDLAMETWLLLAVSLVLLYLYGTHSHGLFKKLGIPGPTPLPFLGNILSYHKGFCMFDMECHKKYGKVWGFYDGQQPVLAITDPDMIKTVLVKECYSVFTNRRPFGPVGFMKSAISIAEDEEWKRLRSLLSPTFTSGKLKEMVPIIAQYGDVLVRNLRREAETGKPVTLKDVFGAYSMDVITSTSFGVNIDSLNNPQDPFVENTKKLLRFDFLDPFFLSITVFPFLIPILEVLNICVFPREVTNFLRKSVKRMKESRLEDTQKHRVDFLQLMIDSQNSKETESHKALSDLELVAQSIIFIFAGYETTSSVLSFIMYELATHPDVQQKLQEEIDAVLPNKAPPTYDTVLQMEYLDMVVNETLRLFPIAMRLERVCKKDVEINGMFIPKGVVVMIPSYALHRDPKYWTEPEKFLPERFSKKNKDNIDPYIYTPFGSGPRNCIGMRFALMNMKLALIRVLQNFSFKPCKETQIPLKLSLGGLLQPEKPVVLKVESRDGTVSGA

[4] = Solubility in pH 5 FeSSIF at 0.2 mg sonicated for 10 mins followed by incubation for 2 days by HPLC analysis; assay type: physicochemical
[5] = target: Serine/threonine-protein kinase 16 (Homo sapiens, UniProt O75716); assay: Inhibition of STK16 (unknown origin) after 60 mins by TR-FRET assay
Serine/threonine-protein kinase 16, sequence (O75716 whole entry): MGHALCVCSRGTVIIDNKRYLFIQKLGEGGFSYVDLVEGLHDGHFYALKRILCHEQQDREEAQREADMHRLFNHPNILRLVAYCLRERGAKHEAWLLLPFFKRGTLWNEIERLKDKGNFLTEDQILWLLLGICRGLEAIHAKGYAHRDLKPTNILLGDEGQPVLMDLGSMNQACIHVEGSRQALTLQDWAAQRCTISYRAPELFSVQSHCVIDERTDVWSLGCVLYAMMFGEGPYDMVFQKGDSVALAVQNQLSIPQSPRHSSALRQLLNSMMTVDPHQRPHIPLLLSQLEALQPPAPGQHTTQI

[6] = target: T2, Dual specificity protein kinase TTK (Homo sapiens, UniProt P33981); assay: Inhibition of TTK (unknown origin) after 60 mins by TR-FRET assay
T2 sequence (P33981 whole entry): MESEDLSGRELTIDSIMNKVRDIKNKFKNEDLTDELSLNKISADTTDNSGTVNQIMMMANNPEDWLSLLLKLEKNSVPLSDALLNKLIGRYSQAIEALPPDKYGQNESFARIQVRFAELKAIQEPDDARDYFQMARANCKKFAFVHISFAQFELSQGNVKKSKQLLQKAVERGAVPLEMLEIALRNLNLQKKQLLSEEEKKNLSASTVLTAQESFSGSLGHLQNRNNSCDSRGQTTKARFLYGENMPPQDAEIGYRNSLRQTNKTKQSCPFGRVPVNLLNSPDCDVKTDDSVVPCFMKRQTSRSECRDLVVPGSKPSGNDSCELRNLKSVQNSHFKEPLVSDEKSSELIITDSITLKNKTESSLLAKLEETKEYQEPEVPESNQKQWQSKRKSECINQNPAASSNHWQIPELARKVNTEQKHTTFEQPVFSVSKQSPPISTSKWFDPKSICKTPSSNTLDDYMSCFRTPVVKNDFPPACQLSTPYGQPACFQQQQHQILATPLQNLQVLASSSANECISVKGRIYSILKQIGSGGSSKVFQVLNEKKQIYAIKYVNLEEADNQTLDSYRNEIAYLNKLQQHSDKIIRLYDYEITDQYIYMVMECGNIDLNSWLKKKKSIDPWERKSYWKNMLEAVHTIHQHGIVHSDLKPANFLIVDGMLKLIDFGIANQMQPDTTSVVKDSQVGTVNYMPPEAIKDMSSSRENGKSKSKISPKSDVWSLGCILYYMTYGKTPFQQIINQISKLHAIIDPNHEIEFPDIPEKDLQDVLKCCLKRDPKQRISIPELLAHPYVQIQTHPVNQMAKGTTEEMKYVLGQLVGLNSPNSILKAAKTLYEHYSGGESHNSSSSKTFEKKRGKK

CYP3A4 [7] = target: T1, CYP3A4; assay: Inhibition of CYP3A4 in human liver microsomes assessed as residual activity at 50 uM measured immediately relative to control; assay type: ADME; conditions: read-out: Activity
[8] = target: Tyrosine-protein kinase SYK (Homo sapiens, UniProt P43405)
Description: Inhibition of C-terminal His-tagged Syk catalytic domain (356 to 635 residues) (unknown origin) using biotin-TYR1 as substrate after 60 mins by TR-FRET assay

[9] = target: Epidermal growth factor receptor (Homo sapiens, UniProt P00533); assay: Inhibition of EGFR (unknown origin) after 60 mins by TR-FRET assay
[10] = target: Serine/threonine-protein kinase B-raf (Homo sapiens, UniProt P15056); assay: Inhibition of BRAF (unknown origin) after 60 mins by TR-FRET assay
Serine/threonine-protein kinase B-raf, sequence (P15056 whole entry): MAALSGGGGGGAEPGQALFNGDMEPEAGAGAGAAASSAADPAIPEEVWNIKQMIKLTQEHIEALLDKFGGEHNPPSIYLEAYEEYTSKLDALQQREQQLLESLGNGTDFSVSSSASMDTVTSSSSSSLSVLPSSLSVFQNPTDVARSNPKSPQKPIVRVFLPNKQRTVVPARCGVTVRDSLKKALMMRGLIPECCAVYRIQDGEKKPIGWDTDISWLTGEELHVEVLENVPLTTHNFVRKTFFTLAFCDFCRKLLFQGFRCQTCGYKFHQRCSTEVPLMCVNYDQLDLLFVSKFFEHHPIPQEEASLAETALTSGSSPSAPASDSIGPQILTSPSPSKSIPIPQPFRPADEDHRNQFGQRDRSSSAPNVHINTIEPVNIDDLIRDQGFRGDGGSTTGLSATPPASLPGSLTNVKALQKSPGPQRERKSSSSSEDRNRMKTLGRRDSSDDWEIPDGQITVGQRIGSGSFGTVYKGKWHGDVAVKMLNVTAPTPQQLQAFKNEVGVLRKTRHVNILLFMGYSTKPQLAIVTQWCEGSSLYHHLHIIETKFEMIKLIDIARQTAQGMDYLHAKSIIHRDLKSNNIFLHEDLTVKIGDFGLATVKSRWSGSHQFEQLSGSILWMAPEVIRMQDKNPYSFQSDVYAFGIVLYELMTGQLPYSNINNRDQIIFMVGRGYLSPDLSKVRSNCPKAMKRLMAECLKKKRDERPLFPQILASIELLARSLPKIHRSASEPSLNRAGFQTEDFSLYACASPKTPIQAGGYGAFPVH

[11] = target: Proto-oncogene tyrosine-protein kinase Src (Homo sapiens, UniProt P12931); assay: Inhibition of SRC (unknown origin) after 60 mins by TR-FRET assay
Proto-oncogene tyrosine-protein kinase Src, sequence (P12931 2-536 limits assumed): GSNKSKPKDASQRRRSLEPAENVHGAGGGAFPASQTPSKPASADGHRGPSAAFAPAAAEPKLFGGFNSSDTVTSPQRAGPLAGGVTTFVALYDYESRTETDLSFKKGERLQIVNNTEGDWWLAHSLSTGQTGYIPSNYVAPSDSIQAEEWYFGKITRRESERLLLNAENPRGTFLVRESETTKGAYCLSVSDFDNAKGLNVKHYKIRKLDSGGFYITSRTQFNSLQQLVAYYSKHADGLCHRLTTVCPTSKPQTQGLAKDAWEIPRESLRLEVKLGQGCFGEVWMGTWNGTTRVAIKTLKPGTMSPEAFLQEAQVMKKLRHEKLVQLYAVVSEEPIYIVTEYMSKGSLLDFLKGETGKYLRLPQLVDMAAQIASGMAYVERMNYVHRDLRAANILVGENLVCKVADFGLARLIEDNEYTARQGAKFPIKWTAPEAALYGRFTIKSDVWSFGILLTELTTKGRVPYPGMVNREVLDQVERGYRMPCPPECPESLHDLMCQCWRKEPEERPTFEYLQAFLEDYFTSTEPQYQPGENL

[12] = Unbound clearance in human microsomes; assay type: ADME, Microsome
[13] = target: Tyrosine-protein kinase ABL1 (Homo sapiens, UniProt P00519); assay: Inhibition of ABL (unknown origin) after 60 mins by TR-FRET assay
Tyrosine-protein kinase ABL1, sequence (P00519 whole entry): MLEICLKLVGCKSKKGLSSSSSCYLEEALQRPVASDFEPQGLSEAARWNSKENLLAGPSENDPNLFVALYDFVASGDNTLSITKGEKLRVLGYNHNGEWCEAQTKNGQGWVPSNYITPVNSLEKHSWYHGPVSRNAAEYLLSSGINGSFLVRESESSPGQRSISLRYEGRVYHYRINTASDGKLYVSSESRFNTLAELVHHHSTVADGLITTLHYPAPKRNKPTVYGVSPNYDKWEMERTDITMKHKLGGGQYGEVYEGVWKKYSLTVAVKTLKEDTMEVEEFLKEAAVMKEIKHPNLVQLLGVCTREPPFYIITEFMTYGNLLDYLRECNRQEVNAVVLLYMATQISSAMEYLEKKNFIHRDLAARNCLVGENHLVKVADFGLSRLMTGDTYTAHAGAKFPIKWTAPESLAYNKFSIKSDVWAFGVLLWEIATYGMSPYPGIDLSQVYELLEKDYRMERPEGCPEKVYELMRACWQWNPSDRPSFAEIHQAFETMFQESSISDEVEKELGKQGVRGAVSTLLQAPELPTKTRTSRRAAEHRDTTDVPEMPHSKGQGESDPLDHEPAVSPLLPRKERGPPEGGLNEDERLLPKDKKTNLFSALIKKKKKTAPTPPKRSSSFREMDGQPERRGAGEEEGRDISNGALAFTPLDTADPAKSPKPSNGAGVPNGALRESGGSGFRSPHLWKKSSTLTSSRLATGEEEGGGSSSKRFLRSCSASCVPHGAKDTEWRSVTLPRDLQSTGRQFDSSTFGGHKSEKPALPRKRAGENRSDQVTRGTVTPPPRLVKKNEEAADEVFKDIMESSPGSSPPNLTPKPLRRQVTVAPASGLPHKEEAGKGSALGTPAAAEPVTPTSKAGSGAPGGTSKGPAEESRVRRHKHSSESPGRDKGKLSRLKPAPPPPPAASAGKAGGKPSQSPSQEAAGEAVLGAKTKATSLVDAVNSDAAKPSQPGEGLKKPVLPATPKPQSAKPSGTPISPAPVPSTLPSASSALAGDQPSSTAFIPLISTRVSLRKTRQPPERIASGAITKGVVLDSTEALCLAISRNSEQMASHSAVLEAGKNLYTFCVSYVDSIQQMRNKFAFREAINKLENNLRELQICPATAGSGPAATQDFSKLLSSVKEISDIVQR

[14] = target: Mitogen-activated protein kinase kinase kinase 10 (Homo sapiens, UniProt Q02779); assay: Inhibition of MAP3K10 (unknown origin) after 60 mins by TR-FRET assay
[15] = target: cGMP-dependent protein kinase 1 (Homo sapiens, UniProt Q13976); assay: Inhibition of PKG1A (unknown origin) after 60 mins by TR-FRET assay
[16] = target: Serine/threonine-protein kinase pim-2 (Homo sapiens, UniProt Q9P1W9); assay: Inhibition of PIM2 (unknown origin) after 60 mins by TR-FRET assay
Serine/threonine-protein kinase pim-2, sequence (Q9P1W9 whole entry): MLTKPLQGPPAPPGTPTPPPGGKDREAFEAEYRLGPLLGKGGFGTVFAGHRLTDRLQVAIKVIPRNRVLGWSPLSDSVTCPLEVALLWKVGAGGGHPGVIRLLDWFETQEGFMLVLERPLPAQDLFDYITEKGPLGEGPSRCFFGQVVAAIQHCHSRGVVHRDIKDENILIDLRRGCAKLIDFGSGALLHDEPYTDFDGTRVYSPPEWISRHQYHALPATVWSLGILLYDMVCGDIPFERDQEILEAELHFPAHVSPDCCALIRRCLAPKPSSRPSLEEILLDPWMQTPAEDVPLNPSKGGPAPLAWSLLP

[17] = target: Cyclin-dependent kinase 2 (Homo sapiens, UniProt P24941); assay: Inhibition of CDK2 (unknown origin) after 60 mins by TR-FRET assay
[18] = target: Dual specificity mitogen-activated protein kinase kinase 3 (Homo sapiens, UniProt P46734); assay: Inhibition of MAP2K3 (unknown origin) after 60 mins by TR-FRET assay
[19] = Inhibition of CDK11 (unknown origin) after 60 mins by TR-FRET assay; parameters: species or system Homo sapiens
[20] = target: RAC-alpha serine/threonine-protein kinase (Homo sapiens, UniProt P31749); assay: Inhibition of AKT (unknown origin) after 60 mins by TR-FRET assay
[21] = target: Calcium/calmodulin-dependent protein kinase kinase 2 (Homo sapiens, UniProt Q96RR4); assay: Inhibition of CAMKK2 (unknown origin) after 60 mins by TR-FRET assay
Calcium/calmodulin-dependent protein kinase kinase 2, sequence (Q96RR4 whole entry): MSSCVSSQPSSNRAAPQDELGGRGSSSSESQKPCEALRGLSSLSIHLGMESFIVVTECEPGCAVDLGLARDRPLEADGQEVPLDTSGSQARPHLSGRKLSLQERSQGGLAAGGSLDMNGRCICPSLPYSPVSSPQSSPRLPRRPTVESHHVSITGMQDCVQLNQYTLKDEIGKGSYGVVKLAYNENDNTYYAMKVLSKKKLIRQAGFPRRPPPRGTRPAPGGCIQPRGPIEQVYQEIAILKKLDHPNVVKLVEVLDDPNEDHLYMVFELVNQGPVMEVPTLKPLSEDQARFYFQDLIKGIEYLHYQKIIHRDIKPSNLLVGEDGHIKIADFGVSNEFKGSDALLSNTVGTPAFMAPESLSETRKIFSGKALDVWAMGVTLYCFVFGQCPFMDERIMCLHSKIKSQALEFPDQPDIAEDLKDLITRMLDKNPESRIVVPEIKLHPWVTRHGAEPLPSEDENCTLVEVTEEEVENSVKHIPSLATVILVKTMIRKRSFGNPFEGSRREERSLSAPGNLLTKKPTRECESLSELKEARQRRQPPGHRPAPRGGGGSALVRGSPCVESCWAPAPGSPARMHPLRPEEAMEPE

[22] = target: Protein kinase C zeta type (Homo sapiens, UniProt Q05513); assay: Inhibition of PKCzeta (unknown origin) after 60 mins by TR-FRET assay
Protein kinase C zeta type, sequence (Q05513 whole entry): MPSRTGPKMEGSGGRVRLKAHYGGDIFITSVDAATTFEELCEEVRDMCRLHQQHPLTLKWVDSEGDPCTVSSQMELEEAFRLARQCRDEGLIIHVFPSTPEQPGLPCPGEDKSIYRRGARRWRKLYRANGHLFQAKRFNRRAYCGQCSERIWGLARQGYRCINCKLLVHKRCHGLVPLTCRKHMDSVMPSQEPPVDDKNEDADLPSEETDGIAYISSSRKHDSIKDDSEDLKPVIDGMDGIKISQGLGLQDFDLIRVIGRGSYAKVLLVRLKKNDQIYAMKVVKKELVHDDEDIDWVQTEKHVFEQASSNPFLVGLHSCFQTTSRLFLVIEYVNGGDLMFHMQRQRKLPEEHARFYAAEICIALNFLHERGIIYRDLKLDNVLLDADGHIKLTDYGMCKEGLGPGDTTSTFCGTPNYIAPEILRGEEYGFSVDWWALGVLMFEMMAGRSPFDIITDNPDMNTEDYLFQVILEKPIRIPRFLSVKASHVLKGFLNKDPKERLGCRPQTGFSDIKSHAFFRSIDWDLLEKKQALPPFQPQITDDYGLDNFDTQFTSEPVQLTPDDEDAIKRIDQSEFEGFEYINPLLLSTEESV

[23] = target: Serine/threonine-protein kinase Sgk1 (Homo sapiens, UniProt O00141); assay: Inhibition of SGK1 (unknown origin) after 60 mins by TR-FRET assay
[24] = target: Epithelial discoidin domain-containing receptor 1 (Homo sapiens, UniProt Q08345); assay: Inhibition of DDR1 (unknown origin) after 60 mins by TR-FRET assay

T1 sequence (P08684 whole entry): as the sequence (P08684 whole entry) above

## Cc1n[nH]c2cc(Nc3nc(NC4CC4)c4occc4n3)ccc12
CYP3A4 [1]
  activity at 0.5 h, 50 µM: 28%
CYP3A4 [2]
  activity at 0.5 h, 10 µM: 51%
CYP3A4 [3]
  activity at 0 min, 10 µM: 94%
Cytochrome P450 3A4
  TDI: Active
[4]
  solubility at 48 h: 99 µM (≈ 31.7 µg/mL)
[5]
  IC50: 4500 nM
[6]
  IC50: 2160 nM
CYP3A4 [7]
  activity at 0 min, 50 µM: 87%

## FC(F)(F)CNc1nc(Nc2ccc3cn[nH]c3c2)nc2ccoc12
[8]
  IC50: 81 nM

## CC1(C)OCC(=O)Nc2cc(Nc3nc(NCC(F)(F)F)c4occc4n3)ccc21
[9]
  IC50: > 10000 nM
CYP3A4 [1]
  activity at 0.5 h, 50 µM: 75%
[10]
  IC50: > 10000 nM
[11]
  IC50: 156 nM
[12]
  CL free: 170 mL/min/kg
CYP3A4 [2]
  activity at 0.5 h, 10 µM: 81%
CYP3A4 [3]
  activity at 0 min, 10 µM: 91%
[13]
  IC50: 408 nM
[14]
  IC50: 4550 nM
[15]
  IC50: > 10000 nM
[16]
  IC50: > 10000 nM
[17]
  IC50: > 10000 nM
[18]
  IC50: > 10000 nM
[19]
  IC50: > 10000 nM
[4]
  solubility at 48 h: 4.96 µM (≈ 2.09 µg/mL)
[20]
  IC50: > 10000 nM
[21]
  IC50: 1910 nM
[22]
  IC50: > 10000 nM
[23]
  IC50: > 10000 nM
[5]
  IC50: 885 nM
[24]
  IC50: > 10000 nM
CYP3A4 [7]
  activity at 0 min, 50 µM: 92%

## FC(F)(F)CNc1nc(Nc2ccc(N3CCOCC3)c(Cl)c2)nc2ccoc12
[13]
  IC50: 2750 nM
[8]
  IC50: 61 nM
[6]
  IC50: 1840 nM

— ChEMBL document CHEMBL4007384, “Synthesis and optimization of furano[3,2-d]pyrimidines as selective spleen tyrosine kinase (Syk) inhibitors” (Bioorg Med Chem Lett, 2016)
